Several values for one entry are separate records, joined by “and”; a condition that tells them apart may be missing. Equal entries are not always repeated.
Tests used:
[1] = system: PBMC from allergic donors; experiment: IFN-γ ELISPOT with extract-stimulated short-term lines; format: cell-based, human; details: positive donor/peptide response
Experimental: (§1) Spots were counted by computer-assisted image analysis (Zeiss, KS-ELISPOT reader, Munich, Germany).
(§2) Each assay was performed in triplicate. The level of statistical significance was determined with a Student's t-test using the mean of triplicate values of the response against relevant pools or individual peptides versus the response against the DMSO control.

[2] = system: PBMC from allergic donors; experiment: Dual ELISPOT, total IL-5 and IFN-γ response (SFC); format: cell-based, human; details: sum of IFNg and IL-5
Experimental: as §1, §2

Substance: 3324.0100 (MLTLFILIITSTIKA)
- Response (SFC/10^6) IFNg ([1]; each table line is one donor): 63 SFC/10^6 and 167 SFC/10^6
- Response (SFC/10^6) Total ([2]; each table line is one donor): 63 SFC/10^6 and 167 SFC/10^6

Substance: 3324.0103 (IAKVPPGPNITATYG)
- Response (SFC/10^6) IFNg ([1]; one donor per table line): 153 SFC/10^6 and 223 SFC/10^6 and 267 SFC/10^6
- Response (SFC/10^6) Total ([2]; one donor per table line): 153 SFC/10^6 and 223 SFC/10^6 and 267 SFC/10^6

Substance: 3324.0372 (PAKNIYSFNEIVALW)
- Response (SFC/10^6) IFNg ([1]; one donor per table line): 67 SFC/10^6
- Response (SFC/10^6) Total ([2]; one donor per table line): 67 SFC/10^6

Substance: 3324.0379 (TNFEIEASFGVEASE)
- Response (SFC/10^6) IFNg ([1]; one donor per table line): 1113 SFC/10^6
- Response (SFC/10^6) Total ([2]; one donor per table line): 1113 SFC/10^6

Substance: 3324.0380 (VILAINHSVFVKGDH)
- Response (SFC/10^6) IFNg ([1]; one donor per table line): 1410 SFC/10^6
- Response (SFC/10^6) Total ([2]; one donor per table line): 1410 SFC/10^6

Substance: 3324.0384 (VKAFKQVDVVISTVG)
- Response (SFC/10^6) IFNg ([1]; one donor per table line): 1007 SFC/10^6
- Response (SFC/10^6) Total ([2]; one donor per table line): 1007 SFC/10^6

Substance: 3324.0630 (LVATSAISLHMQEAG)
- Response (SFC/10^6) IFNg ([1]; one donor per table line): 83 SFC/10^6
- Response (SFC/10^6) Total ([2]; one donor per table line): 83 SFC/10^6

Substance: 3324.0633 (MLAVVAVVLASMVGG)
- Response (SFC/10^6) IFNg ([1]; one donor per table line): 227 SFC/10^6
- Response (SFC/10^6) Total ([2]; one donor per table line): 227 SFC/10^6

Substance: 3324.0639 (TVWAQSAAFPAFKPE)
- Response (SFC/10^6) IFNg ([1]; one donor per table line): 463 SFC/10^6 and 100 SFC/10^6
- Response (SFC/10^6) Total ([2]; one donor per table line): 463 SFC/10^6 and 100 SFC/10^6

Substance: 3324.0652 (LRTLGSTSADEVQRM)
- Response (SFC/10^6) IFNg ([1]; one donor per table line): 113 SFC/10^6
- Response (SFC/10^6) Total ([2]; one donor per table line): 113 SFC/10^6

Substance: 3324.0894 (NGKLHLSLIDPSTLS)
- Response (SFC/10^6) IFNg ([1]; one donor per table line): 460 SFC/10^6
- Response (SFC/10^6) Total ([2]; one donor per table line): 460 SFC/10^6

Substance: 3324.0914 (FAFGYFNGRILGVCP)
- Response (SFC/10^6) IFNg ([1]; one donor per table line): 133 SFC/10^6
- Response (SFC/10^6) Total ([2]; one donor per table line): 133 SFC/10^6

Substance: 3324.0918 (NAMDEIIKSTDAEPA)
- Response (SFC/10^6) IFNg ([1]; one donor per table line): 260 SFC/10^6
- Response (SFC/10^6) Total ([2]; one donor per table line): 260 SFC/10^6

Substance: 3324.0922 (TGLPLMYKFGDNLVV)
- Response (SFC/10^6) IFNg ([1]; one donor per table line): 247 SFC/10^6
- Response (SFC/10^6) Total ([2]; one donor per table line): 247 SFC/10^6

Substance: 3324.1133 (MASSSSVLLVVALFA)
- Response (SFC/10^6) IFNg ([1]; one donor per table line): 53 SFC/10^6
- Response (SFC/10^6) Total ([2]; one donor per table line): 53 SFC/10^6

Substance: 3324.1145 (LRKYGIAAENVIDVK)
- Response (SFC/10^6) IFNg ([1]; each table line is one donor): 50 SFC/10^6
- Response (SFC/10^6) Total ([2]; each table line is one donor): 50 SFC/10^6
